Structures can show the parent of a compound that is named as a salt.
Legend:
[1] = system: full length SMN2 minigene mRNA (FL SMN2mini) in HEK293H cells stably transfected with the SMN2-A minigene construct; test: SMN2 minigene mRNA splicing RT-qPCR assay in cultured cells; type: cell-based; settings: Homo sapiens, HEK293-H, 24 hours, 7-point concentration curve, concentration giving 1.5-fold FL SMN2mini mRNA vs vehicle, read-out: EC1.5x minigene (EC1.5x concentration for production of full length SMN2 minigene mRNA)
Procedure, shortened: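 Stably transfected HEK293H cells, 10,000/well in DMEM/10% FBS with hygromycin, attached 6 h, then received compound for 24 h at 37° C in duplicate at 7 concentrations. Multiplex RT-qPCR with GAPDH used primers that detect only the minigene. An efficiency-corrected ΔΔCt, GAPDH- and vehicle-normalized, gave EC1.5x concentrations.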

SMN protein = SMN protein assay (HTRF) in cultured SMA patient fibroblast cells; type: cell-based; settings: SMA Type 1 human fibroblasts GM03813, 48 hours; for EC1.5x SMN protein (EC1.5x concentration for SMN protein expression): 7-point concentration curve, concentration giving 1.5 times SMN protein vs vehicle; for max. fold increase (maximum fold increase of SMN protein): 7-point concentration data, fold vs vehicle control
Procedure, shortened: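 SMA patient fibroblasts seeded at 5,000 cells/well, treated 48 h at 37 °C in triplicate per concentration (7-point series). Lysed in RIPA with protease inhibitors; SMN read by HTRF (anti-SMN d2/kryptate, overnight RT), 665/620 nm ratio. ΔF vs blank, expressed as fold over vehicle; EC1.5x and maximum fold increase derived.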

Row | SMILES | EC (1.5-fold) [1] | EC1.5x SMN protein (EC1.5x concentration for SMN protein expression) (SMN protein) | max. fold increase (maximum fold increase of SMN protein) (SMN protein)
1 | Cc1cn2cc(NC(=O)c3ccc(N4CCN(C)CC4)cn3)nc2c(C)n1 [Example 9, N-(6,8-dimethyl-imidazo[1,2-a]-pyrazin-2-yl)-5-(4-methyl-piperazin-1-yl)picolinamide] | 0.794 µM | 1.527 µM | 1.6085
2 | Cc1cn2cc(NC(=O)c3ccc(N4CCNCC4)cn3)nc2c(C)n1 [Example 11, N-(6,8-dimethyl-imidazo[1,2-a]-pyrazin-2-yl)-5-(piperazin-1-yl)picolinamide] | 0.297 µM | 0.321 µM | 1.7143
3 | Cc1cn2cc(NC(=O)c3ccc(N4CCNC(C)(C)C4)nc3)ccc2n1 [Example 13, 6-(3,3-dimethyl-piperazin-1-yl)-N-(2-methyl-imidazo[1,2-a]-pyridin-6-yl)-nicotinamide] | 1.03 µM | 1.7564 µM | 1.624
4 | Cc1cn2cc(NC(=O)c3ccc(N4CCNCC4)nc3)ccc2n1 [Example 14, N-(2-methyl-imidazo[1,2-a]-pyridin-6-yl)-6-(piperazin-1-yl)nicotinamide] | 0.231 µM | 0.7944 µM | 1.5912
5 | Cc1cn2cc(NC(=O)c3ccc(N4C[C@H]5CNC[C@H]5C4)nc3)ccc2n1 [Example 15, 6-hexahydro-pyrrolo[3,4-c]-pyrrol-2(1H)-yl)-N-(2-methyl-imidazo[1,2-a]-pyridin-6-yl)-nicotinamide hydrochloride] | 0.254 µM | 0.281 µM | 1.6859
6 | Cc1cn2cc(NC(=O)c3ccc(N4CC5(CNC5)C4)nc3)ccc2n1 [Example 16, N-(2-methyl-imidazo[1,2-a]-pyridin-6-yl)-6-(2,6-diazaspiro-[3,3]heptan-2-yl)nicotinamide hydrochloride] | 1.04 µM | 1.1992 µM | 1.6598
7 | Cc1cn2cc(NC(=O)c3ccc(N4CCNCC4)nc3)cc(C(F)(F)F)c2n1 [Example 19, N-(2-methyl-8-(trifluoromethyl)-imidazo[1,2-a]-pyridin-6-yl)-6-(piperazin-1-yl)-nicotinamide] | 0.267 µM | 1.3818 µM | 1.664
8 | Cc1cn2cc(NC(=O)c3ccc(N4CCN5CCC[C@H]5C4)nc3)cc(C(F)(F)F)c2n1 [Example 21, (S)-6-(hexahydro-pyrrolo[1,2-a]-pyrazin-2(1H)-yl)-N-(2-methyl-8-(trifluoromethyl)-imidazo[1,2-a]-pyridin-6-yl)-nicotinarnide] | 0.386 µM | 0.6542 µM | 1.7755
9 | Cc1cn2cc(NC(=O)c3ccc(N4CC(C)NC(C)C4)nc3)cc(C(F)(F)F)c2n1 (stereo not drawn) [Example 22, 6-(3,5-dimethyl-piperazin-1-yl)-N-(2-methyl-8-(trifluoromethyl)-imidazo[1,2-a]-pyridin-6-yl)-nicotinamide] | 0.263 µM | 0.4468 µM | 1.7566
10 | Cc1nc2c(F)cc(NC(=O)c3ccc(N4CC(C)NC(C)C4)nc3)cc2o1 (stereo not drawn) [Example 23, 6-(3,5-dimethyl-piperazin-1-yl)-N-(4-fluoro-2-methylbenzo[d]-oxazol-6-yl)-nicotinamide] | 0.201 µM | 0.5092 µM | 1.6942
11 | Cc1nc2c(F)cc(NC(=O)c3ccc(N4CCN(C)CC4)nc3)cc2o1 [Example 24, N-(4-fluoro-2-methylbenzo[d]-oxazol-6-yl)-6-(4-methylpiperazin-1-yl)nicotinamide] | 0.649 µM | 1.2616 µM | 1.756
12 | Cc1nc2c(F)cc(NC(=O)c3ccc(N4CCN5CCC[C@H]5C4)nc3)cc2o1 [Example 25, (S)-N-(4-fluoro-2-methylbenzo[d]oxa-zol-6-yl)-6-(hexa-hydropyrrolo[1,2-a]pyrazin-2-(1H)-yl)nicotinamide] | 0.382 µM | 0.5694 µM | 1.6652
13 | Cc1nc2c(F)cc(NC(=O)c3ccc(N4CCNCC4)nc3)cc2o1 [Example 26, N-(4-Fluoro-2-methylbenzo-oxazol-6-yl)-6-piperazin-1-yl-nicotinamide] | 0.0445 µM | 0.2853 µM | 1.8316
14 | Cc1nc2c(F)cc(NC(=O)c3ccc(N4CCNCC4)cc3)cc2o1 [Example 28, N-(4-fluoro-2-methylbenzo[d]-oxazol-6-yl)-4-(piperazin-1-yl)benzamide] | 0.252 µM | 0.2868 µM | 1.7291
15 | Cc1nc2c(F)cc(NC(=O)c3ccc(N4CC(C)NC(C)C4)cc3)cc2o1 (stereo not drawn) [Example 30, 4-(3,5-dimethyl-piperazin-1-yl)-N-(4-fluoro-2-methyl-benzo[d]oxazol-6-yl)benzamide] | 0.41 µM | 0.7612 µM | 1.6734
16 | Cc1cn2cc(NC(=O)c3ccc(N4CCN5CCC[C@H]5C4)cc3F)ccc2n1 [Example 31, (S)-2-fluoro-4-(hexahydropyrrolo[1,2-a]pyrazin-2(1H)-yl)-N-(2-methylimidazo[1,2-a]pyridin-6-yl)benzamide] | 0.119 µM | 0.2746 µM | 1.7849
17 | Cc1cn2cc(NC(=O)c3ccc(N4CCN(C)CC4)nc3)cc(F)c2n1 [Example 32, N-(8-fluoro-2-methylimidazo-[1,2-a]pyridin-6-yl)-6-(4-methyl-piperazin-1-yl)-nicotinamide] | 0.0938 µM | 0.2028 µM | 1.7579
18 | Cc1nc2c(F)cc(NC(=O)c3ccc(N4CCN5CCC[C@@H]5C4)cc3F)cc2o1 [Example 34, (R)-2-fluoro-N-(4-fluoro-2-methyl-benzo[d]oxazol-6-yl)-4-(hexahydro-pyrrolo[1,2-a]-pyrazin-2(1H)-yl)benzamide] | 0.328 µM | 0.7793 µM | 1.6527
19 | Cc1cn2cc(NC(=O)c3ccc(N4CCN5CCC[C@H]5C4)cc3F)cc(C(F)(F)F)c2n1 [Example 35, (S)-2-fluoro-4-(hexahydro-pyrrolo[1,2-a]-pyrazin-2(1H)-yl)-N-(2-methyl-8-(trifluoro-methyl)imidazo-[1,2-a]pyridin-6-yl]benzamide] | 0.202 µM | 1.2664 µM | 1.6275
20 | Cc1cn2cc(NC(=O)c3ccc(N4CCNCC4)cc3)cc(F)c2n1.Cl [Example 36, N-(8-fluoro-2-methylimidazo[1,2-a]pyridin-6-yl)-4-(piperazin-1-yl)benzamide hydrochloride] | 0.0278 µM | 0.1094 µM | 1.7018
21 | Cc1cn2cc(NC(=O)c3ccc(N4CCNCC4)cc3F)cc(F)c2n1 [Example 40, 2-fluoro-N-(8-fluoro-2-methyl-imidazo[1,2-a]-pyridin-6-yl)-4-(piperazin-1-yl)benzamide dihydrochloride] | 0.0108 µM | 0.0276 µM | 1.7607
22 | Cc1cn2cc(NC(=O)c3ccc(N4CCNCC4)cc3F)ccc2n1 [Example 44, 2-fluoro-N-(2-methylimidazo[1,2-a]pyridin-6-yl)-4-(piperazin-1-yl)-benzamidehydro-chloride] | 0.0648 µM | 0.13 µM | 1.8243
23 | Cc1cn2cc(NC(=O)c3ccc(N4CCN[C@@H](C)C4)cc3F)cc(F)c2n1 [Example 50, (S)-2-fluoro-N-(8-fluoro-2-methyl-imidazo[1,2-a]-pyridin-6-yl)-4-(3-methylpiperazin-1-yl)benzamide hydrochloride] | 0.0068 µM | 0.0344 µM | 1.6607
24 | Cc1cn2cc(NC(=O)c3ccc(N4CCN[C@H](C)C4)cc3F)cc(F)c2n1 [Example 51, (R)-2-fIuoro-N-(8-fluoro-2-methyl-imidazo[1,2-a]-pyridin-6-yl)-4-(3-methylpiperazin-1-yl)benzamide hydrochloride] | 0.0084 µM | 0.0561 µM | 1.7266
